Article PMC3446843 (Toxicological Sciences, 2012)

Assays:
[1] = tested on: isolated mouse liver mitochondria; test: Loss of mitochondrial transmembrane potential; format: biochemical; settings: 20% of maximal loss of ΔΨm (50µM mClCCP = 100%), 30-min incubation
[2] = tested on: isolated mouse liver mitochondria, complex I; test: Oxygen consumption through complex I; settings: for effect on oxygen consumption (in words): with malate/glutamate and/or succinate; for O2 cons CI EC20: inhibition of oxygen consumption, malate + glutamate + ADP, 2µM rotenone = 100%
[3] = tested on: isolated mouse liver mitochondria; test: Cytochrome c release; format: biochemical; settings: without Ca2+ pulse
[4] = tested on: isolated mouse liver mitochondria; test: Mitochondrial swelling; settings: without Ca2+ pulse
[5] = short incubation of isolated mitochondria; ref Kamel et al. (2012); cited from earlier work

Structure (SMILES) | ΔΨm loss EC20 [1] | effect on oxygen consumption (in words) [2] | O2 cons CI EC20 [2] | induction of cytochrome c release (in words) [3] | induction of mitochondrial swelling (in words) [4] | compound metabolized [5]
Cc1cn([C@H]2C[C@H](N=[N+]=[N-])[C@@H](CO)O2)c(=O)[nH]c1=O [Zidovudine] | 416.1 µM | increased oxygen consumption | – | – | – | –
NC(=O)c1cnccn1 [Pyrazinamide] | > 400 µM | – | 190.9 µM | – | – | –
COc1cc(/C=C/C(=O)CC(=O)/C=C/c2ccc(O)c(OC)c2)ccc1O [Curcumin] | > 200 µM | – | > 200 µM | – | – | –
Nc1nc2ncc(CNc3ccc(C(=O)N[C@@H](CCC(=O)O)C(=O)O)cc3)nc2c(=O)[nH]1 [Folic acid] | 276.2 µM | – | 213.0 µM | – | – | –
COC(=O)c1ccc(O)cc1 [Methyl paraben] | > 200 µM | – | 94.8 µM | – | – | –
Nc1c(Br)cc(Br)cc1CN[C@H]1CC[C@H](O)CC1 [Ambroxol] | > 200 µM | – | > 200 µM | – | – | –
CC(=O)Oc1ccccc1C(=O)O [Acetylsalicylic acid] | 335.5 µM | – | 149.8 µM | – | – | –
CCOC(=O)c1ccc(O)cc1 [Ethyl paraben] | 297.5 µM | – | 47.8 µM | – | – | –
CC[C@H]1OC(=O)[C@H](C)[C@@H](O[C@H]2C[C@@](C)(OC)[C@@H](O)[C@H](C)O2)[C@H](C)[C@@H](O[C@@H]2O[C@H](C)C[C@H](N(C)C)[C@H]2O)[C@](C)(O)C[C@@H](C)C(=O)[C@H](C)[C@@H](O)[C@]1(C)O [Erythromycin] | > 400 µM | – | 27.9 µM | – | – | –
Nc1ccc(S(=O)(=O)c2ccc(N)cc2)cc1 [Dapsone] | > 400 µM | – | 205.5 µM | – | – | –
C[C@@H]1C[C@H]2[C@@H]3CCC4=CC(=O)C=C[C@]4(C)[C@@]3(F)[C@@H](O)C[C@]2(C)[C@@]1(O)C(=O)CO [Dexamethasone] | > 200 µM | – | > 200 µM | – | – | –
CC(=O)N1CCN(c2ccc(OCC3COC(Cn4ccnc4)(c4ccc(Cl)cc4Cl)O3)cc2)CC1 (centres unmarked) [Ketoconazole] | 243.0 µM | – | 2.9 µM | – | – | –
C=CCN1CC[C@]23c4c5ccc(O)c4O[C@H]2C(=O)CC[C@@]3(O)[C@H]1C5 [Naloxone] | 298.7 µM | – | > 400 µM | – | – | –
O=C(O)Cc1ccccc1Nc1c(Cl)cccc1Cl [Diclofenac] | 137.9 µM | – | 29.8 µM | unable to induce | – | –
O=C(O)c1cc(O)c(O)c(O)c1 [Gallic acid] | > 200 µM | – | 153.9 µM | – | – | –
O=C(O)CCCC[C@@H]1SC[C@@H]2NC(=O)N[C@@H]21 [Biotin] | > 400 µM | – | > 400 µM | – | – | –
CCCN(CCC)C(=O)Cc1c(-c2ccc(Cl)cc2)nc2ccc(Cl)cn12 [Alpidem] | 83.7 µM | – | 29.6 µM | – | – | –
O=C(O)c1ccccc1O [Salicylic acid] | 304.3 µM | – | 120.9 µM | – | – | –
O=C1NS(=O)(=O)c2ccccc21 [Saccharin] | > 400 µM | – | 179.4 µM | – | – | –
CC(=O)Oc1ccc(C(c2ccc(OC(C)=O)cc2)c2ccccn2)cc1 [Bisacodyl] | 312.4 µM | – | 52.5 µM | – | – | –
C[C@](N)(Cc1ccc(O)c(O)c1)C(=O)O [Methyldopa] | > 400 µM | – | 63.1 µM | – | – | –
NC12CC3CC(CC(C3)C1)C2 [Amantadine] | 261.2 µM | – | > 400 µM | – | – | –
Cc1cc(NS(=O)(=O)c2ccc(N)cc2)no1 [Sulfamethoxazole] | > 400 µM | – | > 400 µM | – | – | –
CCCCN1CCCCC1C(=O)Nc1c(C)cccc1C (centres unmarked) [Bupivacaine] | 258.2 µM | – | > 800 µM | – | – | –
Cc1c(C)c2c(c(C)c1O)CCC(C)(COc1ccc(CC3SC(=O)NC3=O)cc1)O2 (centres unmarked) [Troglitazone] | 3.4 µM | – | 6.0 µM | unable to trigger | unable to trigger | –
C#CCN(C)Cc1ccccc1 [Pargyline] | 243 µM | – | 206.8 µM | – | – | –

Structure (SMILES) | ΔΨm loss EC20 [1] | effect on oxygen consumption (in words) [2] | O2 cons CI EC20 [2] | induction of cytochrome c release (in words) [3] | induction of mitochondrial swelling (in words) [4] | compound metabolized [5]
C1CCC(C(CC2CCCCN2)C2CCCCC2)CC1 (centres unmarked) [Perhexiline] | 3.2 µM | – | 87.7 µM | induced mitochondrial swelling and cytochrome c release when very low concentrations were used | induced mitochondrial swelling and cytochrome c release when very low concentrations were used | –
Cc1cc(=O)n(-c2ccccc2)n1C [Antipyrine] | 300.0 µM | – | > 400 µM | – | – | –
Nc1ccn([C@@H]2CS[C@H](CO)O2)c(=O)n1 [Lamivudine] | 347.2 µM | – | 317.4 µM | – | – | –
CCN(CC)CC(=O)Nc1c(C)cccc1C [Lidocaine] | 339.5 µM | increased oxygen consumption | – | – | – | –
C=CC1=C(C(=O)O)N2C(=O)[C@@H](NC(=O)/C(=N\OCC(=O)O)c3csc(N)n3)[C@H]2SC1 [Cefixime] | > 400 µM | – | 216.8 µM | – | – | –
C[C@@H]1O[C@@H](OC[C@H]2O[C@@H](Oc3c(-c4ccc(OCCO)c(OCCO)c4)oc4cc(OCCO)cc(O)c4c3=O)[C@H](O)[C@@H](O)[C@@H]2O)[C@H](O)[C@H](O)[C@H]1O [Troxerutin] | > 400 µM | – | 170.5 µM | – | – | –
CCCC(CCC)C(=O)O [Valproic acid] | 267.2 µM | – | 44.9 µM | – | – | –
CCCOC(=O)c1ccc(O)cc1 [Propyl paraben] | 162.8 µM | – | 28.4 µM | – | – | –
Cn1c(=O)c2c(ncn2C)n(C)c1=O [Caffeine] | > 400 µM | – | > 400 µM | – | – | –
CC(=O)Nc1ccc(O)cc1 [Acetaminophen] | > 200 µM | – | > 400 µM | – | – | –
CN1CCC[C@H]1c1cccnc1 [Nicotine] | > 400 µM | – | 312 µM | – | – | –
CNS(=O)(=O)Cc1ccc2[nH]cc(CCN(C)C)c2c1 [Sumatriptan] | 248.3 µM | – | > 400 µM | – | – | 30%
CN1C(C(=O)Nc2ccccn2)=C(O)c2ccccc2S1(=O)=O [Piroxicam] | 101.7 µM | – | 6.6 µM | – | – | –
Oc1cc(O)cc(O)c1 [Phloroglucinol] | > 800 µM | – | > 400 µM | – | – | –
CC1=C(CC(=O)O)c2cc(F)ccc2/C1=C\c1ccc([S+](C)[O-])cc1 (centres unmarked) [Sulindac] | > 200 µM | – | 35.6 µM | – | – | –
CNC(=C[N+](=O)[O-])NCCSCc1ccc(CN(C)C)o1 [Ranitidine] | 368.1 µM | – | 97.3 µM | – | – | –
CC[C@H](C)C(=O)O[C@H]1C[C@@H](C)C=C2C=C[C@H](C)[C@H](CC[C@@H]3C[C@@H](O)CC(=O)O3)[C@H]21 [Lovastatin] | 43.6 µM | – | 6.2 µM | – | – | –
NC(=O)N1c2ccccc2C=Cc2ccccc21 [Carbamazepine] | 66.9 µM | increased oxygen consumption | – | – | – | –
CCOC(=O)[N-]c1cn(N2CCOCC2)n[o+]1 [Molsidomine] | > 400 µM | – | > 200 µM | – | – | –
CC(C)Cc1ccc(C(C)C(=O)O)cc1 (centres unmarked) [Ibuprofen] | 355.9 µM | – | 132.1 µM | – | – | –
O=C1CN(/N=C/c2ccc([N+](=O)[O-])o2)C(=O)N1 [Nitrofurantoin] | 442.5 µM | – | 8.7 µM | – | – | –
C#Cc1cccc(Nc2ncnc3cc(OCCOC)c(OCCOC)cc23)c1 [Erlotinib] | 195.9 µM | increased oxygen consumption | – | – | – | –
CN(C)C(=N)N=C(N)N [Metformin] | 388.4 µM | – | 351.8 µM | – | – | –
OC[C@H]1O[C@@](CO)(O[C@H]2O[C@H](CO)[C@@H](O)[C@H](O)[C@H]2O)[C@@H](O)[C@@H]1O [Sucrose] | > 800 µM | – | > 800 µM | – | – | –
CN[C@@H]1[C@H](O)[C@H](NC)[C@H]2O[C@@]3(O)C(=O)C[C@@H](C)O[C@H]3O[C@@H]2[C@H]1O [Spectinomycin] | > 400 µM | increased oxygen consumption | – | – | – | –
NCCS(=O)(=O)O [Taurine] | > 800 µM | – | > 800 µM | – | – | –
